Test results from patent US11998537B2, “Substituted indole dimer compounds” (BRISTOL-MYERS SQUIBB COMPANY, priority 2018, dated 2024).

What was measured:
Assay type in all cases: cell-based
human TLR7 = target: T1, human TLR7 (Homo sapiens, UniProt Q9NYK1); assay: TLR7 inhibition reporter assay (HEK-Blue SEAP); details: HEK-Blue cells overexpressing human TLR7, gardiquimod 7.5 μM, 22 hour incubation
T1 construct: host or cells: HEK-Blue cells (HEK293-derived reporter line)
T1 sequence (Q9NYK1 27-1049): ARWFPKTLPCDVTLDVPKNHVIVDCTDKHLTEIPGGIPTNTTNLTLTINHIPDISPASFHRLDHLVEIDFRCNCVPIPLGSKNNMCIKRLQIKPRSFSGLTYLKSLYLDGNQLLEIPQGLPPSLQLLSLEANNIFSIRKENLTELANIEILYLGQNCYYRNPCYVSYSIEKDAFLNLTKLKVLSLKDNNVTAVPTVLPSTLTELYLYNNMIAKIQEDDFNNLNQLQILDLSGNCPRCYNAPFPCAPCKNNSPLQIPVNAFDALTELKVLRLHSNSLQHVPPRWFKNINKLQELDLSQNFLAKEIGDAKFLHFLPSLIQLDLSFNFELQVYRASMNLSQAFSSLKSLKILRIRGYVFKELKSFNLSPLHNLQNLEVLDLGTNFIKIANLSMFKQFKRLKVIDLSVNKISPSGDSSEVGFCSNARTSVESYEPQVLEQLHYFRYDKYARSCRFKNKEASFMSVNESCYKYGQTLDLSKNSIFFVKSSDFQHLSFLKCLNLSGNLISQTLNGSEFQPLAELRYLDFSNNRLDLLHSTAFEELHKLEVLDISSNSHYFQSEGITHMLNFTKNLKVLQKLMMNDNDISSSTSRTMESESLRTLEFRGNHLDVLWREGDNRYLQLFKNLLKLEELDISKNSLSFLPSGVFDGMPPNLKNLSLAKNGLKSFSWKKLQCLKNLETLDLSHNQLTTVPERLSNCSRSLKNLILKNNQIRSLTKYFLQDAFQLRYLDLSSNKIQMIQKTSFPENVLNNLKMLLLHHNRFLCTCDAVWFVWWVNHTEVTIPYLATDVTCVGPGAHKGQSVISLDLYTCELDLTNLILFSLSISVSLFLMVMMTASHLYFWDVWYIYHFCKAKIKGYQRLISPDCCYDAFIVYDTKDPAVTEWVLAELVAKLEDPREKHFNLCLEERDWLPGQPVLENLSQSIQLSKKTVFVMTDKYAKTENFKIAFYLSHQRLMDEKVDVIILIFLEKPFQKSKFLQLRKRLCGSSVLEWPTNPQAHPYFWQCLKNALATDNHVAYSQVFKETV
Experimental: (§1) TLR7/8/9 Inhibition Reporter Assays
(§2) HEK-Blue™-cells (Invivogen) overexpressing human TLR7, TLR8 or TLR9 receptors were used for screening inhibitors of these receptors using an inducible SEAP (secreted embryonic alkaline phosphatase) reporter gene under the control of the IFN-β minimal promoter fused to five NF-κB and AP-1-binding sites. Briefly, cells are seeded into Greiner 384 well plates (15000 cells per well for TLR7, 20,000 for TLR8 and 25,000 for TLR9) and then treated with test compounds in DMSO to yield a final dose response concentration range of 0.05 nM-50 μM. After a 30 minute compound pre-treatment at room temperature, the cells are then stimulated with a TLR7 ligand (gardiquimod at a final concentration of 7.5 μM), TLR8 ligand (R848 at a final concentration of 15.9 μM) or TLR9 ligand (ODN2006 at a final concentration of 5 nM) to activate NF-κB and AP-1 which induce the production of SEAP. After a 22 hour incubation at 37° C., 5% CO2, SEAP levels are determined with the addition of HEK-Blue™ Detection reagent (Invivogen), a cell culture medium that allows for detection of SEAP, according to manufacturer's specifications. The percent inhibition is determined as the % reduction in the HEK-Blue signal present in wells treated with agonist plus DMSO alone compared to wells treated with a known inhibitor.

human TLR9 = target: T2, human TLR9 (Homo sapiens, UniProt Q9NR96); assay: TLR9 inhibition reporter assay (HEK-Blue SEAP); details: HEK-Blue cells overexpressing human TLR9, ODN2006 5 nM, 22 hour incubation
T2 construct: host or cells: HEK-Blue cells (HEK293-derived reporter line)
T2 sequence (Q9NR96 26-1032): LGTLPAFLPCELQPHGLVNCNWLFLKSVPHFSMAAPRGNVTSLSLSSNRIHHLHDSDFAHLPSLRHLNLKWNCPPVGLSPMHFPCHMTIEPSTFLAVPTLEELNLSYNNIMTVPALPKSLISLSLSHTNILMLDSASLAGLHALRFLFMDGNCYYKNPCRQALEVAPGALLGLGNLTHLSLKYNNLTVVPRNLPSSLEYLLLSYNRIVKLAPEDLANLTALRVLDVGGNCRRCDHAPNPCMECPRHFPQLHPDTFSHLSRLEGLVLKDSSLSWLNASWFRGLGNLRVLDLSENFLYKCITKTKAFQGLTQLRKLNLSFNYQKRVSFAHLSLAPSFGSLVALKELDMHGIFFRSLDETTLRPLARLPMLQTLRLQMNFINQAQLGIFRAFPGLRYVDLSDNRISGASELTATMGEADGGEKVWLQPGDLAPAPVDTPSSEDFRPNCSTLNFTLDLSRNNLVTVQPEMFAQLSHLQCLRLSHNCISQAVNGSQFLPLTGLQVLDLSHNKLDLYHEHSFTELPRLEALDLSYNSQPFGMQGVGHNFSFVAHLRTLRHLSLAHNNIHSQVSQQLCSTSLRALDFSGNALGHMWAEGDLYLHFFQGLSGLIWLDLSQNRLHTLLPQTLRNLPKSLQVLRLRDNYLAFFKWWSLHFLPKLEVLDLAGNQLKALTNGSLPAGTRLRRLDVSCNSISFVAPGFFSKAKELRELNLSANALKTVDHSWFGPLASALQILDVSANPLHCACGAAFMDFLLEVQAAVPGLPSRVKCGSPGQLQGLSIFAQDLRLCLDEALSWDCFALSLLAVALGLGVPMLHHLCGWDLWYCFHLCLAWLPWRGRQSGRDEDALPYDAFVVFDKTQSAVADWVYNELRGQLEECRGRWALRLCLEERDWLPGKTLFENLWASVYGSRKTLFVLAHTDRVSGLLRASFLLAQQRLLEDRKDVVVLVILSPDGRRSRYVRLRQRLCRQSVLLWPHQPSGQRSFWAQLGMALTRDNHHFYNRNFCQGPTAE
Experimental: as §1, §2

human TLR8 = target: T3, human TLR8 (Homo sapiens, UniProt Q9NR97); assay: TLR8 inhibition reporter assay (HEK-Blue SEAP); details: HEK-Blue cells overexpressing human TLR8, R848 15.9 μM, 22 hour incubation
T3 construct: host or cells: HEK-Blue cells (HEK293-derived reporter line)
T3 sequence (Q9NR97 27-1041): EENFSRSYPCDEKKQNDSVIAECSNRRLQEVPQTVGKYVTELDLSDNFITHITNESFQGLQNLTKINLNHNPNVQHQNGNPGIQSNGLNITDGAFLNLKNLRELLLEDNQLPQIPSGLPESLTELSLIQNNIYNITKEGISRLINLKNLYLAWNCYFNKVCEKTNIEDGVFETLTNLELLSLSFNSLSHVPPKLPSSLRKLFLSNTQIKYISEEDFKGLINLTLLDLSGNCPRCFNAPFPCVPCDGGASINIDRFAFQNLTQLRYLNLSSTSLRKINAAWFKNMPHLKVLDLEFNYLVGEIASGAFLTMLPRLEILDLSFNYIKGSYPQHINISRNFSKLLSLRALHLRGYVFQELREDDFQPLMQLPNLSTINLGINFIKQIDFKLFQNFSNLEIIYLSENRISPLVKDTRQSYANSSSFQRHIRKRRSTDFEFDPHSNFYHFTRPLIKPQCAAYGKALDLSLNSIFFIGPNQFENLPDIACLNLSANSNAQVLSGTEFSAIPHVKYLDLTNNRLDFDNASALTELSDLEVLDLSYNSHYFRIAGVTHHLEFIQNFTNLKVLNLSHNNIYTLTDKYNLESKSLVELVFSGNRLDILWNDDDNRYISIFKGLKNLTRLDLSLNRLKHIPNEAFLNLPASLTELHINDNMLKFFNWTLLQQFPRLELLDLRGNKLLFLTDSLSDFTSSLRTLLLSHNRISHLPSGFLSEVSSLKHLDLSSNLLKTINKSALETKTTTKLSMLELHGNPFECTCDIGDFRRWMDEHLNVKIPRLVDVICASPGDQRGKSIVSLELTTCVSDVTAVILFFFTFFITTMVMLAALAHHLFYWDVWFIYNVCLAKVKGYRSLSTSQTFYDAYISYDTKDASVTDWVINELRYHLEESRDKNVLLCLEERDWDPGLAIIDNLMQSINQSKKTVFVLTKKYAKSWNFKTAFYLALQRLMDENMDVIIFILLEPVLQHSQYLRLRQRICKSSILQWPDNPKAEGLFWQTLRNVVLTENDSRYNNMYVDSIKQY
Experimental: as §1, §2

| Compound | IC50 (human TLR7) [nM] | IC50 (human TLR9) [nM] | IC50 (human TLR8) [nM] |
| --- | --- | --- | --- |
| COc1cc(-c2[nH]c3ccc(C4CCN(C(=O)CCCCCCCCCCCCCCCCC(=O)N5CCC(c6ccc7[nH]c(-c8cc(OC)c9ncnn9c8)c(C(C)C)c7c6)CC5)CC4)cc3c2C(C)C)cn2ncnc12 [Comparator Compound C1, 1,18-bis(4-(3-isopropyl-2-(8-methoxy-[1,2,4]triazolo[1,5-a]pyridin-6-yl)-1H-indol-5-yl)piperidin-1-yl)octadecane-1,18-dione, reference compound] | > 3130 | > 50000 | ≥ 3130 |
| COc1cc(-c2[nH]c3ccc(C4CCN(C(=O)CCCCCCCCCCCCCCCCCC(=O)N5CCC(c6ccc7[nH]c(-c8cc(OC)c9ncnn9c8)c(C(C)C)c7c6)CC5)CC4)cc3c2C(C)C)cn2ncnc12 [Comparator Compound C3, reference compound] | > 3130 | > 50000 | > 3130 |
| COc1cc(-c2[nH]c3ccc(C4CCN(CCCCCCCCCCCCCCCCCCN5CCC(c6ccc7[nH]c(-c8cc(OC)c9ncnn9c8)c(C(C)C)c7c6)CC5)CC4)cc3c2C(C)C)cn2ncnc12 [Example 12, 1,18-bis(4-(3-isopropyl-2-(8-methoxy-[1,2,4]triazolo[1,5-a]pyridin-6-yl)-1H-indol-5-yl)piperidin-1-yl)octadecane] | 191 | 13400 | 509 |
| COc1cc(-c2[nH]c3ccc(C4CCN(CCNC(=O)CCCCC(=O)NCCN5CCC(c6ccc7[nH]c(-c8cc(OC)c9ncnn9c8)c(C(C)C)c7c6)CC5)CC4)cc3c2C(C)C)cn2ncnc12 [Example 9, N1,N6-bis(2-(4-(3-isopropyl-2-(8-methoxy-[1,2,4]triazolo[1,5-a]pyridin-6-yl)-1H-indol-5-yl)piperidin-1-yl)ethyl)adipamide] | 0.19 | 348 | 0.59 |
| COc1cc(-c2[nH]c3ccc(C4CCN(CCN)CC4)cc3c2C(C)C)cn2ncnc12 [Comparator Compound C4, 2-(4-(3-isopropyl-2-(8-methoxy-[1,2,4]triazolo[1,5-a]pyridin-6-yl)-1H-indol-5-yl)piperidin-1-yl)ethan-1-amine, reference compound] | 0.6 | 1970 | 2.1 |

Now from value to molecule:

| IC50 (human TLR7) [nM] | IC50 (human TLR9) [nM] | IC50 (human TLR8) [nM] | Compound |
| --- | --- | --- | --- |
| 0.19 | 175 | 0.28 | COc1cc(-c2[nH]c3ccc(C4CCN(CCNC(=O)CCCCCC(=O)NCCN5CCC(c6ccc7[nH]c(-c8cc(OC)c9ncnn9c8)c(C(C)C)c7c6)CC5)CC4)cc3c2C(C)C)cn2ncnc12 [Example 8, N1,N7-bis(2-(4-(3-isopropyl-2-(8-methoxy-[1,2,4]triazolo[1,5-a]pyridin-6-yl)-1H-indol-5-yl)piperidin-1-yl)ethyl)heptanediamide] |
| 0.92 | 121 | 1.4 | COc1cc(-c2[nH]c3ccc(C4CCN(CCNC(=O)CCCCCCCCCCCC(=O)NCCN5CCC(c6ccc7[nH]c(-c8cc(OC)c9ncnn9c8)c(C(C)C)c7c6)CC5)CC4)cc3c2C(C)C)cn2ncnc12 [Example 1, N1,N13-bis(2-(4-(3-isopropyl-2-(8-methoxy-[1,2,4]triazolo[1,5-a]pyridin-6-yl)-1H-indol-5-yl)piperidin-1-yl)ethyl)tridecanediamide] |
| 0.25 | 94 | 0.22 | COc1cc(-c2[nH]c3ccc(C4CCN(CCNC(=O)CCCCCCCCCC(=O)NCCN5CCC(c6ccc7[nH]c(-c8cc(OC)c9ncnn9c8)c(C(C)C)c7c6)CC5)CC4)cc3c2C(C)C)cn2ncnc12 [Example 4, N1,N11-bis(2-(4-(3-isopropyl-2-(8-methoxy-[1,2,4]triazolo[1,5-a]pyridin-6-yl)-1H-indol-5-yl)piperidin-1-yl)ethyl)undecanediamide] |
| 0.15 | 140 | 0.18 | COc1cc(-c2[nH]c3ccc(C4CCN(CCNC(=O)CCCCCCCC(=O)NCCN5CCC(c6ccc7[nH]c(-c8cc(OC)c9ncnn9c8)c(C(C)C)c7c6)CC5)CC4)cc3c2C(C)C)cn2ncnc12 [Example 5, N1,N9-bis(2-(4-(3-isopropyl-2-(8-methoxy-[1,2,4]triazolo[1,5-a]pyridin-6-yl)-1H-indol-5-yl)piperidin-1-yl)ethyl)nonanediamide] |
